“Also recorded” adds a separate entry of the source. Bridge positions count the residues as written; N and C are the ends. Ends that are not written are not given here.
Legend:
hTRPV1 = experiment: Whole-cell patch-clamp, hTRPV1 stably expressed in CHO cells; type: cell-based, human
Description: (§1) CHO and human embryonic kidney (HEK 293) cells were grown in DMEM-high glucose supplemented with 10% FBS, 2 mM L-glutamine, 100 U/mL penicillin-g, and 100 μg/mL streptomycin (Invitrogen) at 37 °C in a 5% CO2 and 95% air humidified atmosphere. Cells were passaged twice per week following a 5-min incubation in PBS containing 0.2 g/L EDTA (Invitrogen, Carlsbad, CA).
(§2) CHO cells (ATCC) were transiently transfected with plasmids encoding hKV1.1, hKV1.2, hKV10.1, hKCa3.1, hTRPA1, or hNaV1.7 using Lipofectamine 2000 (Invitrogen, Carlsbad, CA) following the manufacturer’s protocol, then cultured under standard conditions. The cells were co-transfected with a plasmid encoding green fluorescent protein (GFP) at a molar ratio of 10:1 except for hKV1.1, hKV1.2, and hKCa3.1 for which GFP-tagged ion channel vectors were used. Currents were recorded 24–36 h after transfection. […] Transfected cells were washed twice with 2 mL of ECS (see below) and re-plated onto 35-mm polystyrene cell culture dishes (Cellstar, Greiner Bio-One). hKV1.3 currents were recorded from activated peripheral blood mononuclear cells (PBMCs, see below) 3–4 days after activation. […]
(§3) Conventional whole-cell patch-clamp electrophysiology was used to record ionic currents. […] Data were analysed using Prism 8 (GraphPad, CA, USA) and ClampFit 10.5 software (Molecular Devices Inc., Sunnyvale, CA). […]

mKCa1.1 channel = type: cell-based
Description: as §1
(§4) CHO cells (ATCC) were transiently transfected with plasmids encoding hKV1.1, hKV1.2, hKV10.1, hKCa3.1, hTRPA1, or hNaV1.7 using Lipofectamine 2000 (Invitrogen, Carlsbad, CA) following the manufacturer’s protocol, then cultured under standard conditions. The cells were co-transfected with a plasmid encoding green fluorescent protein (GFP) at a molar ratio of 10:1 except for hKV1.1, hKV1.2, and hKCa3.1 for which GFP-tagged ion channel vectors were used. Currents were recorded 24–36 h after transfection. […] HEK 293 cells stably expressing the hKv11.1 channel (hERG, hKCNH2 gene, a kind gift from H. Wulff, University of California, Davis, CA) and mKCa1.1 channel (BKCa, hKCNMA1, a kind gift from C. Beeton, Baylor College of Medicine, Houston, TX) were used. hTRPV1 channels were expressed in a stable manner in CHO cells. Transfected cells were washed twice with 2 mL of ECS (see below) and re-plated onto 35-mm polystyrene cell culture dishes (Cellstar, Greiner Bio-One). hKV1.3 currents were recorded from activated peripheral blood mononuclear cells (PBMCs, see below) 3–4 days after activation. Human veinous blood was obtained from anonymised healthy donors. […]
(§5) Conventional whole-cell patch-clamp electrophysiology was used to record ionic currents. […] Data were analysed using Prism 8 (GraphPad, CA, USA) and ClampFit 10.5 software (Molecular Devices Inc., Sunnyvale, CA). […] For hKCa3.1, hTRPA1 and hTRPV1, the reversal potential for K^+ was determined and only those currents were analysed for which the reversal potential fell into the range of the theoretical reversal potential ± 5 mV (− 86.5 ± 5 mV for KCa3.1, and 0 ± 5 mV for hTRPA1 and hTRPV1).

hKV1.2 = target: T1, hKV1.2 (Homo sapiens, UniProt P16389); experiment: Whole-cell patch-clamp, hKV1.2 in transiently transfected CHO cells; type: cell-based; conditions: for RCF_mean (remaining current fraction, I/I0): mean
T1 construct: GFP; expressed in transfected cells; host or cells: CHO cells (ATCC), transient transfection with Lipofectamine 2000
Description: as §1
(§6) CHO cells (ATCC) were transiently transfected with plasmids encoding hKV1.1, hKV1.2, hKV10.1, hKCa3.1, hTRPA1, or hNaV1.7 using Lipofectamine 2000 (Invitrogen, Carlsbad, CA) following the manufacturer’s protocol, then cultured under standard conditions. The cells were co-transfected with a plasmid encoding green fluorescent protein (GFP) at a molar ratio of 10:1 except for hKV1.1, hKV1.2, and hKCa3.1 for which GFP-tagged ion channel vectors were used. Currents were recorded 24–36 h after transfection. […] HEK 293 cells stably expressing the hKv11.1 channel (hERG, hKCNH2 gene, a kind gift from H. Wulff, University of California, Davis, CA) and mKCa1.1 channel (BKCa, hKCNMA1, a kind gift from C. Beeton, Baylor College of Medicine, Houston, TX) were used. hTRPV1 channels were expressed in a stable manner in CHO cells. Transfected cells were washed twice with 2 mL of ECS (see below) and re-plated onto 35-mm polystyrene cell culture dishes (Cellstar, Greiner Bio-One). hKV1.3 currents were recorded from activated peripheral blood mononuclear cells (PBMCs, see below) 3–4 days after activation. Human veinous blood was obtained from anonymised healthy donors. PBMCs were isolated using Histopaque1077 (Sigma-Aldrich Hungary, Budapest, Hungary) density gradient centrifugation. Cells obtained were resuspended in RPMI 1640 medium containing 10% foetal calf serum (Sigma-Aldrich Hungary, Budapest, Hungary), 100 μg/mL penicillin, 100 μg/mL streptomycin, and 2 mM L-glutamine, seeded in a 24-well culture plate at a density of 5–6 × 10^5 cells/mL, and grown in a 5% CO2 incubator at 37 °C for 3–5 days. Phytohemagglutinin A (PHA, Sigma-Aldrich Hungary, Budapest, Hungary) was added to the medium at 10 μg/mL to amplify the KV1.3 expression. Cells were washed gently twice with 2 mL of ECS for the patch-clamp experiments.
Conventional whole-cell patch-clamp electrophysiology was used to record ionic currents. Micropipettes were pulled in four stages using a Flaming Brown automatic pipette puller (Sutter Instruments, San Rafael, CA) from Borosilicate Standard Wall with Filament aluminium–silicate glass (Harvard Apparatus Co., Holliston, MA) with tip diameters between 0.5 and 1 μm and heat polished to a tip resistance of 2–8 MΩ. All measurements were carried out by using Axopatch 200B amplifier connected to a personal computer using Axon Digidata 1550A data acquisition hardware (Molecular Devices, Sunnyvale, CA). In general, the holding potential was − 120 mV. Records were discarded when a leak at the holding potential was > 10% of the peak current at the test potential. Series resistance compensation up to 70% was used to minimise voltage errors and achieve proper voltage-clamp conditions. Experiments were performed at room temperature (20–24 °C). Data were analysed using Prism 8 (GraphPad, CA, USA) and ClampFit 10.5 software (Molecular Devices Inc., Sunnyvale, CA). Before analysis, whole-cell current traces were corrected for ohmic leakage and digitally filtered with a three-point boxcar smoothing filter. For hKCa3.1, hTRPA1 and hTRPV1, the reversal potential for K^+ was determined and only those currents were analysed for which the reversal potential fell into the range of the theoretical reversal potential ± 5 mV (− 86.5 ± 5 mV for KCa3.1, and 0 ± 5 mV for hTRPA1 and hTRPV1).

hKV10.1 = experiment: Whole-cell patch-clamp, hKV10.1 in transiently transfected CHO cells; type: cell-based, human
Description: as §1, §4, §5

hKV1.1 = type: cell-based, human
Description: as §1, §4, §5

hKCa3.1 = experiment: Whole-cell patch-clamp, hKCa3.1 in transiently transfected CHO cells; type: cell-based, human
Description: as §1, §2, §3

hTRPA1 = experiment: Whole-cell patch-clamp, hTRPA1 in transiently transfected CHO cells; type: cell-based, human
Description: as §1, §2, §3

[1] = tested on: hKV11.1 channel (hERG, hKCNH2 gene); experiment: Whole-cell patch-clamp, hKV11.1 (hERG) stably expressed in HEK 293 cells; type: cell-based, human
Description: as §1, §2, §3

hNaV1.7 = experiment: Whole-cell patch-clamp, hNaV1.7 in transiently transfected CHO cells; type: cell-based, human
Description: as §1, §2, §3

hKV1.3 = type: cell-based, human
Description: as §6, with “Phytohemagglutinin A (PHA, Sigma-Aldrich Hungary, Budapest, Hungary) was added to the medium at 10 μg/mL to amplify the KV1.3 expression. Cells were washed gently twice with 2 mL of ECS for the patch-clamp experiments.” left out
as §5

T1 sequence (P16389 whole entry): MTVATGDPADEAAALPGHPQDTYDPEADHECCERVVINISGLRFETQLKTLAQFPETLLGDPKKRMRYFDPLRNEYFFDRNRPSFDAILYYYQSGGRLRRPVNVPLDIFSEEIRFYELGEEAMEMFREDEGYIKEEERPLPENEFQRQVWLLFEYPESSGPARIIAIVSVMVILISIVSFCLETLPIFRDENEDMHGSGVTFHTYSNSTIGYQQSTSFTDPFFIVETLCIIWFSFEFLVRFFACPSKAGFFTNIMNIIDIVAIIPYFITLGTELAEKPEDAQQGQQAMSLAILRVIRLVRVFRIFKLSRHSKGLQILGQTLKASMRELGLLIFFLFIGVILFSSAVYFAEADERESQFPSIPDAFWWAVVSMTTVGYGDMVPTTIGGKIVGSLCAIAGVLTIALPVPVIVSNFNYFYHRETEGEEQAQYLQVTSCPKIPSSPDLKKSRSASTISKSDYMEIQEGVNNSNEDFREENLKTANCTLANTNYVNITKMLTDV

In the case of “GYGKGRPGCYNHYDESICGGVIKDEHCKAGRGSRMGKFALKNCQFQCGLC (disulfide 9-47, 18-50, 27-43) [SA8]”, the “RCF_mean (remaining current fraction, I/I0)” value (hTRPV1; TRPV1, 100 nM SA8, mean, n = 5, SEM 0.0111172) is reported as 0.9606, the “effect on current, in words” value (hTRPV1; hTRPV1, CHO cells, activated by 1 µM capsaicin, 100 nM SA8) is reported as “no effect; also recorded: did not inhibit” and the “RCF_mean (remaining current fraction, I/I0)” value (mKCa1.1 channel; KCa1.1, 100 nM SA8, mean, n = 4, SEM 0.0158455) is reported as 1.052. For the same sequence, the “effect on current, in words” value (mKCa1.1 channel; mKCa1.1, HEK 293, 100 nM SA8) was “no effect; also recorded: did not inhibit”, the “association and dissociation rates” value (hKV1.2; 100 nM SA8, hKV1.2) was “rapid” and the “reversibility of block upon washing” value (hKV1.2; 100 nM SA8, hKV1.2, inhibitor-free solution) was “almost fully reversible”. The “time for development of equilibrium block and recovery” value (hKV1.2; 100 nM SA8, hKV1.2, recovery up to ~ 85% of control current) was ~ 1 min, the IC50 (hKV1.2; 0.01, 0.1, 1 and 10 µM SA8, linear least squares fit Y = 1 + slope × [toxin], n = 4, room temperature (20–24 °C), ECS pH 7.35, 0.1 mg/mL BSA, CHO cells) was 40.8 ± 4.9 µM and the “RCF_mean (remaining current fraction, I/I0)” value (hKV1.2; Kv1.2, 10 nM SA8, n = 5, SEM 0.00976051) was 0.9869. The “RCF_mean (remaining current fraction, I/I0)” value (hKV1.2; Kv1.2, 100 nM SA8, n = 4, SEM 0.0156624) was 0.9412, the “RCF_mean (remaining current fraction, I/I0)” value (hKV1.2; Kv1.2, 1000 nM SA8, n = 4, SEM 0.0249691) was 0.9151 and the “RCF_mean (remaining current fraction, I/I0)” value (hKV1.2; Kv1.2, 10000 nM SA8, n = 6, SEM 0.0222303) was 0.772. For the same sequence, the “recovery of current upon washing (of control current)” value (hKV1.2; after 100 nM SA8, hKV1.2, inhibitor-free solution) was ~ 85%, the “effect on current, in words” value (hKV1.2; hKV1.2, CHO cells, 100 nM) was “weak block; also recorded: modest block; also recorded: weak inhibition” and the “RCF_mean (remaining current fraction, I/I0)” value (hKV10.1; Kv10.1, 1000 nM SA8, mean, n = 4, SEM 0.00577385) was 0.9796. For the same sequence, the “effect on current, in words” value (hKV10.1; hKV10.1, CHO cells, 1 µM SA8) was “no effect; also recorded: did not inhibit”, the “RCF_mean (remaining current fraction, I/I0)” value (hKV1.1; Kv1.1, 100 nM SA8, mean, n = 4, SEM 0.0202631) was 1.029 and the “effect on current, in words” value (hKV1.1; hKV1.1, CHO cells, 100 nM SA8) was “no effect; also recorded: did not inhibit”. The “RCF_mean (remaining current fraction, I/I0)” value (hKCa3.1; KCa3.1, 100 nM SA8, mean, n = 6, SEM 0.0170688) was 0.9712, the “effect on current, in words” value (hKCa3.1; hKCa3.1, CHO cells, 100 nM SA8) was “no effect; also recorded: did not inhibit” and the “RCF_mean (remaining current fraction, I/I0)” value (hTRPA1; TRPA1, 100 nM SA8, mean, n = 5, SEM 0.0123957) was 0.9628. The “effect on current, in words” value (hTRPA1; hTRPA1, CHO cells, activated by 100 µM AITC, 100 nM SA8) was “no effect; also recorded: did not inhibit”, the “RCF_mean (remaining current fraction, I/I0)” value ([1]; Kv11.1, 100 nM SA8, mean, n = 5, SEM 0.0157239) was 1.029 and the “effect on current, in words” value ([1]; hKV11.1 (hERG), HEK 293, 100 nM SA8) was “no effect; also recorded: did not inhibit”. The “RCF_mean (remaining current fraction, I/I0)” value (hNaV1.7; Nav1.7, 1000 nM SA8, mean, n = 5, SEM 0.022988) was 1.02, the “effect on current, in words” value (hNaV1.7; hNaV1.7, CHO cells, 1 µM SA8) was “no effect; also recorded: did not inhibit” and the “RCF_mean (remaining current fraction, I/I0)” value (hKV1.3; Kv1.3, 100 nM SA8, mean, n = 3, SEM 0.00826878) was 1.03. The “effect on current, in words” value (hKV1.3; hKV1.3, activated PBMCs, 100 nM SA8) was “no effect; also recorded: did not inhibit”.
